Test results as given in patent US20120004235A1, “METHODS TO TREAT CANCER” (Rutgers, The State University of New Jersey, priority 2009, published 2012).
Structures can show the parent of a compound that is named as a salt. Where two headings read alike, the source gives them in different places.

Experiments:
[1] = test system: NCI-H460 human non-small cell lung carcinoma xenograft; test: Compound 2 citrate salt vs. NCI-H460 xenograft model (pemetrexed, topotecan, cisplatin controls); settings: for mean tumor volume of the animals not at endpoint: 3 animals
[2] = test system: HT-29 human colon tumor xenograft; test: Compound 2 citrate salt vs. HT-29 human colon tumor model
[3] = test system: HCT-116 human colon tumor xenograft; test: Compound 2 citrate salt vs. HCT-116 human colon tumor xenograft model (IV)
[4] = test system: MDA-MB-231 human breast tumor xenograft; settings: for animals not yet reached the study endpoint of 1500 mm^3: Day 90
[5] = test system: NCI-H460 human non-small cell lung carcinoma xenograft; test: Comparison dose schedule study in the NCI-H460 xenograft model; format: in vivo, nude (nu/nu) mice
Excerpt: Irinotecan served as the positive control.

[6] = test system: NCI-H460 human non-small cell lung carcinoma xenograft; test: Compound 2 citrate salt vs. NCI-H460 xenograft model (docetaxel control)
[7] = test system: human HCT-116 colon ca, HT-29 colon ca and NCI-H460 NSCLC cells; test: 72 hour exposure concentration response in tumor cells (Example 22); format: cell-based; settings: range over HCT-116, HT-29 and NCI-H460 cells and the three compounds
Protocol: The in vitro and in vivo activity of compound 2 and two of its metabolites (compound 5 and compound 6) were explored and compared with the activity of camptothecin Top1 inhibitors. […] In human HCT-116 colon ca, HT-29 colon ca and NCI-H460 NSCLC cells the concentration response for compound 2, compound 5 and compound 6 were the same. […] Compound 2 was administered intravenously on a QODx3 schedule for 2 cycles.

[8] = test system: Human HCT-116 Colon Tumor Xenograft Model; test: Test D xenograft, Compound 2 and metabolites; settings: qod × 3 for 2 cycles
[9] = test system: HCT-116 human colon tumor xenograft; test: Compound 2 after oral administration vs. the HCT-116 xenograft model; settings: 60 mg/kg/day IP, q4d×3
[10] = test system: Human HCT-15 Colon Tumor Xenograft Model; test: Test D xenograft, Compound 2 free base; format: in vivo, nu/nu mice; settings: 60 mg/kg/day IV, q4d×3
[11] = test system: Human 786-0 Renal Cell Tumor Xenograft Model; test: Test D xenograft, Compound 2 free base; format: in vivo, nu/nu mice; settings: 60 mg/kg/day IV, q4d×3
[12] = test system: Human DLD-1 Colon Tumor Xenograft Model; test: Test D xenograft, Compound 2 free base; format: in vivo, nu/nu mice; settings: 60 mg/kg/day IV
[13] = 2.72 mg/kg/day IP, qod×3 weekly for 2 cycles
[14] = 2.72 mg/kg/day IP, qod×3 weekly for 2 cycles, Day 53
[15] = 4.08 mg/kg/day IP, qod×3 weekly for 2 cycles
[16] = 1.36 mg/kg/day IV, qod×3 weekly for 2 cycles
[17] = 2.72 mg/kg/day IV, qod×3 weekly for 2 cycles
[18] = 2.04 mg/kg/day IP, qod×3 weekly for 2 cycles
[19] = all dosages (0.68, 1.36, 2.72 mg/kg IP, qod×3 weekly for 2 cycles)
[20] = 60 mg/kg/day IP, qod×3 weekly for 2 cycles

CNCCn1c(=O)c2cc(OC)c(OC)cc2c2cnc3cc4c(cc3c21)OCO4 [Compound 2 citrate salt, 8,9-dimethoxy-2,3-methylenedioxy-5-[2-(N-methylamino)ethyl]-5H-dibenzo[c,h]1,6-naphthyridin-6-one]
TGI (T/C) ([1]; 2.59 mg/kg/day IP, qd×5): 30.5%
toxic deaths [1, 13]: no toxic deaths
animals not yet reached the study endpoint of 2000 mm^3 [1, 14]: 3 of 8
weight loss recovered at study termination [1, 14]: approximately 12%
mean tumor volume of the animals not at endpoint [1, 14]: 1583 mm^3
maximum weight loss ([1]; 2.72 mg/kg/day IP, qod×3 weekly for 2 cycles, on Day 22): 22.3%
TGI (T/C) ([1]; 3.27 mg/kg/day IP, qd×5): 33.5%
animals not yet reached the study endpoint of 2000 mm^3 ([1]; 3.27 mg/kg/day IP, qd×5): 3 of 8
mean tumor volume of the animals not at endpoint ([1]; 3.27 mg/kg/day IP, qd×5): 1722 mm^3
TGI (T/C) [2, 13]: 50.1%
TGD ([2]; 2.72 mg/kg/day IP, qod×3 weekly for 2 cycles, vs untreated control): 16 days
ILS [2, 15]: 1.7 fold
TGD (T-C) [2, 15]: 31 days
TGI (T/C) [2, 15]: 18.9%
tolerability ([2]; dose levels tested (1.36, 2.72, 4.08 mg/kg/day IP, qod×3 weekly for 2 cycles)): well tolerated
ILS [3, 16]: 1.6 fold
TGD (T-C) [3, 16]: 18 days
TGI (T/C) [3, 16]: 45.0%
ILS [3, 17]: > 2.2 fold
TGD [3, 17]: > 34 days
mice survivors at conclusion of the study ([3]; 2.72 mg/kg/day IV, qod×3 weekly for 2 cycles, Day 62): 50%
weight loss ([3]; 5.44 mg/kg/day IV, qod×3 weekly for 2 cycles): > 30%
toxic deaths ([3]; 5.44 mg/kg/day IV, qod×3 weekly for 2 cycles, groups of 8): ⅝
TGD [4, 18]: 52 days
animals not yet reached the study endpoint of 1500 mm^3 [4, 18]: 2 of 8
TGD [4, 13]: > 58 days
animals not yet reached the study endpoint of 1500 mm^3 [4, 13]: 4 of 8
ILS ([4]; 3.27 mg/kg/day IP, qd×5): > 2.0 fold
TGD (T-C) ([4]; 3.27 mg/kg/day IP, qd×5): 42 days
TGI (T/C) ([4]; 3.27 mg/kg/day IP, qd×5): 9.5%
maximum weight loss ([4]; 3.27 mg/kg/day IP, qd×5): 15.7%
mice remaining on Day 90 ([4]; 3.27 mg/kg/day IP, qd×5): one
maximum weight loss ([5]; 4.90 mg/kg/day IP, q4d×5, on Day 34): 24.2%
ILS [6, 13]: 2.0 fold
TGD (T-C) [6, 13]: 24 days
TGI (T/C) [6, 13]: 35.1%
body weight loss [6, 19]: < 20%
toxic deaths [6, 19]: no toxic deaths

CNCCn1c(=O)c2cc(O)c(OC)cc2c2cnc3cc4c(cc3c21)OCO4 [Compound 5]
IC50 ([7]; read-out: IC50 concentrations): 0.5 to 0.65 nM
IC90 ([7]; read-out: IC90 concentrations): 1.8 to 2 nM
Increase in Life Span (ILS) ([8]; 4 mg/kg/day IV): 1.8x
Tumor Growth Delay T-C ([8]; 4 mg/kg/day IV): 25 days
Tumor Growth Inhibition T/C (tumor volume) ([8]; 4 mg/kg/day IV): 27.3%
Increase in Life Span (ILS) ([8]; 6 mg/kg/day IV): 1.9x
Tumor Growth Delay T-C ([8]; 6 mg/kg/day IV): 28 days
Tumor Growth Inhibition T/C (tumor volume) ([8]; 6 mg/kg/day IV): 23.4%
Increase in Life Span (ILS) ([8]; 8 mg/kg/day IV): 2.0x
Tumor Growth Delay T-C ([8]; 8 mg/kg/day IV): 32 days
Tumor Growth Inhibition T/C (tumor volume) ([8]; 8 mg/kg/day IV): 27.2%

CCc1c2c(nc3ccc(OC(=O)N4CCC(N5CCCCC5)CC4)cc13)-c1cc3c(c(=O)n1C2)COC(=O)[C@]3(O)CC [Irinotecan, reference compound]
TGD ([2]; 60 mg/kg/day IV, q4d×3): no TGD was observed
TGI (T/C) ([2]; 60 mg/kg/day IV, q4d×3): 52.7%
tolerability ([2]; 60 mg/kg/day IV, q4d×3): well tolerated
ILS ([3]; 60 mg/kg/day IV, q4d×3): 1.5 fold
TGD (T-C) ([3]; 60 mg/kg/day IV, q4d×3): 14 days
tolerability ([3]; 60 mg/kg/day IV, q4d×3): tolerated well
ILS [9]: > 1.5 fold
TGD (T-C) [9]: > 18 days
body weight loss [9]: < 10%
animals remaining at study termination ([9]; Day 53): 8 of 9
ILS [4, 20]: > 2.0 fold
TGD (T-C) [4, 20]: 38 days
TGI (T/C) [4, 20]: 10%
body weight loss [4, 20]: 20%
ILS ([5]; 60 mg/kg/day IP, q4d×3): 1.7 fold
TGD (T-C) ([5]; 60 mg/kg/day IP, q4d×3): 14 days
ILS [5, 20]: 2.5 fold
TGD (T-C) [5, 20]: 29 days
TGI (T/C) [5, 20]: 19.0%
Increase in Life Span (ILS) [10]: 1.7x
Tumor Growth Delay T-C [10]: 28 days
Increase in Life Span (ILS) [11]: 1.4x
Tumor Growth Delay T-C [11]: 17 days
Tumor Growth Delay T-C ([12]; q4d×3): 5 days
Increase in Life Span (ILS) ([12]; q4d × 3, listed as CPT-11): 1.1x
